Measured values from patent US20260125366A1, “METHODS FOR TREATING CANCER” (SCORPION THERAPEUTICS, INC., priority 2022, published 2026).

molecular target: PI3Kα H1047R (Homo sapiens, UniProt P42336, H1047R); assay: ADP-Glo assay; assay type: biochemical; conditions: 2 nM H1047R enzyme; 1 hour incubation with compound at room temperature; ATPase reaction 100 min
Method: Compounds were plated using acoustic liquid dispensing on the Echo 655T by transferring 50 nL/well compound DMSO solution from an Echo source plate to a 384-well assay plate to generate a 10-point dose response curve with a top final concentration of […], 1:3 serial dilution down; the same volume of DMSO was dispensed to wells designated as positive and negative controls. On the day of the assay, a 2X enzyme solution in the assay buffer (50 mM Tris, 150 mM NaCl, 0.01% Brij35, 15 mM MgCl2, 0.05% Tween-20, and 1 mM DTT) was prepared. The enzyme concentrations used were: 20 nM for wild-type, 2 nM for H1047R and H1047L, and 10 nM for H1047Y proteins. 2.5 µL/well of 2X enzyme solution was dispensed into the assay plates and the enzyme was incubated with the test compound at room temperature for 1 hour; the same volume of assay buffer without enzyme was dispensed to wells designated as positive controls. At the end of the incubation, 2.5 µL/well of 2X ATP solution in assay buffer was dispensed to initiate the ATPase reaction and incubated at room temperature for 100 min. Reactions were terminated and ADP production measured using the ADP-Glo kit following instructions from the manufacturer.
The IC50(nM) ranges are as follows: A denotes <200 nM; B denotes 200 nM≤IC50<500 nM; C denotes ≥500 nM. ND denotes value not determined with that assay for the specified compound.

Chain of PI3Kα H1047R (P42336 whole entry H1047R): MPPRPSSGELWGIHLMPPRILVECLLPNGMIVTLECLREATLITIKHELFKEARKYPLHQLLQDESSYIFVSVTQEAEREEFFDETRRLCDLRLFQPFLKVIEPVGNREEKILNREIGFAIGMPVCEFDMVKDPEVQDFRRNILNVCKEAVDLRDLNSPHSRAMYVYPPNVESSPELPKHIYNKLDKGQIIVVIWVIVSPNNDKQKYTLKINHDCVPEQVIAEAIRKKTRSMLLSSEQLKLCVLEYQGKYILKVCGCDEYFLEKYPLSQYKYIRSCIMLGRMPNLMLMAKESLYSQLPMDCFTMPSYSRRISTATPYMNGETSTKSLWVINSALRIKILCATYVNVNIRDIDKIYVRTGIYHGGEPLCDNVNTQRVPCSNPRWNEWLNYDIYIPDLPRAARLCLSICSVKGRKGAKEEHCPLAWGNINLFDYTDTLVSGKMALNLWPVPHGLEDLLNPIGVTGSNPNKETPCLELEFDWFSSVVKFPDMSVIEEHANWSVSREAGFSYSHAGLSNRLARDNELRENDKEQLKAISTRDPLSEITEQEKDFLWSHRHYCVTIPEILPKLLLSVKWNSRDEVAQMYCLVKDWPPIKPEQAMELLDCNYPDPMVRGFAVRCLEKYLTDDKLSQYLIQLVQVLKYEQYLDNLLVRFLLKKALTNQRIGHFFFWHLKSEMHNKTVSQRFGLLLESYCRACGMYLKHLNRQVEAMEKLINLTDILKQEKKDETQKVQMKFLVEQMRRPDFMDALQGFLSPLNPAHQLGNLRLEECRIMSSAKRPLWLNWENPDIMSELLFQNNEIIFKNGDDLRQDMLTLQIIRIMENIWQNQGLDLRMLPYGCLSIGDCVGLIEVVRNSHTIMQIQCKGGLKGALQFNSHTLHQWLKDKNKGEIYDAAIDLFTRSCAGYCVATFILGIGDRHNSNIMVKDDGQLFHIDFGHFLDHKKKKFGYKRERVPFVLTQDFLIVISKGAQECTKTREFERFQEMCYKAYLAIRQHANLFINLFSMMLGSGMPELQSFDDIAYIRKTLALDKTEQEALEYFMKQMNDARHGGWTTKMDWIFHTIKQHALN
Chain of PI3Kα H1047R (P27986 whole entry partner): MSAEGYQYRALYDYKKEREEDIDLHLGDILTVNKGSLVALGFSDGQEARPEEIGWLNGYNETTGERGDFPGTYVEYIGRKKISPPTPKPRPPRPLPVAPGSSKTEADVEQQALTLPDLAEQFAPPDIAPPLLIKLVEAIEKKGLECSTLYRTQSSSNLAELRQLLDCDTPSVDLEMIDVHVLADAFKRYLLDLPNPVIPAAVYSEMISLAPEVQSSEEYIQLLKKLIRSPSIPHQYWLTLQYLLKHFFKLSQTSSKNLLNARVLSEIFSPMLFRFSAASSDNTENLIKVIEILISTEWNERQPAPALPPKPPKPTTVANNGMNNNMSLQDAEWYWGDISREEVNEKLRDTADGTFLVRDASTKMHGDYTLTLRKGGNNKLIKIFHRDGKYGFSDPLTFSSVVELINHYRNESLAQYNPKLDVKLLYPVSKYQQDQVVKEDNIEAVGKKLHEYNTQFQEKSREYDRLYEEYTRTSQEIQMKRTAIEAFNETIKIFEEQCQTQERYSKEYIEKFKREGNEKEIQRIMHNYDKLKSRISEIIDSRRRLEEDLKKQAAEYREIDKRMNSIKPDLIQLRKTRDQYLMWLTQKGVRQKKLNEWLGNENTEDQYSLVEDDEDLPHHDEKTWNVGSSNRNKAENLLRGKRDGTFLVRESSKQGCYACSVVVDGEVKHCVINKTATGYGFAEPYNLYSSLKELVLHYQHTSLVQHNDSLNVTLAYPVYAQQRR

Row | Compound | IC50
1 | Cn1c(C(NC(=O)Nc2cnc(N)nc2)C(F)(F)F)cc2ccc(F)cc21 (stereo not shown) [Compound 1, 1-(2-aminopyrimidin-5-yl)-3-[2,2,2-trifluoro-1-(6-fluoro-1-methylindol-2-yl)ethyl]urea] | < 200 nM
2 | CC(C)C(NC(=O)Nc1cnc(N)nc1)c1cc2ccc(F)cc2n1C (stereo not shown) [Compound 2, 1-(2-aminopyrimidin-5-yl)-3-[1-(6-fluoro-1-methylindol-2-yl)-2-methylpropyl]urea] | < 200 nM
3 | Cc1c([C@@H](NC(=O)Nc2cnc(N)nc2)C(F)(F)F)n(C)c2c(F)cc(F)cc12 [Compound 3, 1-(2-aminopyrimidin-5-yl)-3-[(1R)-1-(5,7-difluoro-1,3-dimethylindol-2-yl)-2,2,2-trifluoroethyl]ureas] | 200 to 500 nM

Continued, values first:

Row | IC50 | Compound
4 | ≥ 500 nM | Cc1c([C@@H](NC(=O)Nc2cnc(N)nc2)C(F)(F)F)nn2ccccc12 (racemic) [Compound 5]
5 | < 200 nM | Cn1c([C@@H](NC(=O)Nc2cnc(N)nc2)C(F)(F)F)nc2c(F)cc(F)cc21 (racemic) [Compound 7]
6 | < 200 nM | Cn1c([C@@H](NC(=O)Nc2cnc(N)nc2)C(F)(F)F)cc2c(F)cc(F)cc21 (racemic) [Compound 9]
7 | ≥ 500 nM | Cc1c([C@@H](NC(=O)Nc2cnc(N)nc2)C(F)(F)F)nc2ccc(F)cn12 (racemic) [Compound 11]
